From the NIST ThermoML archive (doi:10.1016/j.jct.2018.12.039)

Test: xn = mol fraction of the nth substance listed
Conditions: 100 kPa, Liquid; for speed of sound: Frequency=2 MHz, Linear variable-path acoustic interferometer; for mass density: Vibrating tube method

Cc1ccc(O)cc1 [4-methylphenol] + CCO
Conditions	mass density, 303.15 K [kg/m3]	mass density, 308.15 K [kg/m3]	mass density, 313.15 K [kg/m3]	mass density, 318.15 K [kg/m3]	speed of sound, 303.15 K [m/s]	speed of sound, 313.15 K [m/s]
x2 = 0	1026.47	1022.56	1018.64	1014.68	1473	1440.2
x2 = 0.1392	1006.2	1002.27	998.32	994.31	1435.7	1402.3
x2 = 0.2624	985.93	981.96	977.97	973.9	1392.4	1359.7
x2 = 0.3722	965.59	961.62	957.61	953.46	1350.4	1318.2
x2 = 0.4707	945.23	941.23	937.2	932.96	1311.9	1280
x2 = 0.5595	924.86	920.83	916.75	912.45	1277.5	1245.8
x2 = 0.6401	904.44	900.38	896.25	891.89	1247	1215.1
x2 = 0.7134	883.97	879.86	875.69	871.3	1220.1	1188
x2 = 0.7805	863.47	859.3	855.09	850.66	1196.3	1164
x2 = 0.8421	842.93	838.68	834.45	829.99	1175.3	1142.8
x2 = 0.8989	822.33	818.01	813.74	809.25	1156.8	1124.1
x2 = 0.9514	801.71	797.31	793.01	788.43	1140.8	1107.9

Cc1ccccc1O [2-methylphenol] + CCO
Conditions	mass density, 303.15 K [kg/m3]	mass density, 308.15 K [kg/m3]	mass density, 313.15 K [kg/m3]	mass density, 318.15 K [kg/m3]	speed of sound, 303.15 K [m/s]	speed of sound, 313.15 K [m/s]
x2 = 0	1037.02	1032.58	1028.19	1023.82	1488.1	1453
x2 = 0.1387	1015.95	1011.54	1007.18	1002.83	1435.4	1401.2
x2 = 0.2617	994.82	990.39	986.02	981.62	1391.2	1355.4
x2 = 0.3713	973.68	969.21	964.81	960.38	1351.2	1314.6
x2 = 0.4698	952.47	947.97	943.57	939.1	1314.2	1277.9
x2 = 0.5586	931.22	926.73	922.33	917.85	1280.2	1245
x2 = 0.6392	909.96	905.45	901.08	896.59	1249.3	1215.3
x2 = 0.7127	888.59	884.08	879.74	875.23	1221.5	1188.6
x2 = 0.7799	867.19	862.71	858.37	853.88	1196.9	1164.8
x2 = 0.8417	845.72	841.26	836.92	832.43	1175.2	1143.6
x2 = 0.8986	824.22	819.77	815.43	810.91	1156.5	1124.8
x2 = 0.951	802.69	798.22	793.89	789.33	1140.6	1108.4

Cc1cccc(O)c1 [3-methylphenol] + CCO
Conditions	mass density, 303.15 K [kg/m3]	mass density, 308.15 K [kg/m3]	mass density, 313.15 K [kg/m3]	mass density, 318.15 K [kg/m3]	speed of sound, 303.15 K [m/s]	speed of sound, 313.15 K [m/s]
x2 = 0	1025.71	1021.7	1017.69	1013.65	1466.1	1436.1
x2 = 0.14	1005.48	1001.45	997.42	993.36	1426.7	1398.2
x2 = 0.2637	985.23	981.17	977.1	972.97	1384.7	1355
x2 = 0.3738	964.94	960.82	956.72	952.53	1344.9	1313.8
x2 = 0.4724	944.63	940.47	936.35	932.08	1308.5	1276.5
x2 = 0.5612	924.32	920.08	915.95	911.64	1275.8	1243.4
x2 = 0.6417	903.96	899.68	895.51	891.18	1246.6	1214
x2 = 0.7149	883.56	879.25	875.06	870.68	1220.5	1188
x2 = 0.7817	863.15	858.83	854.61	850.21	1197.2	1164.7
x2 = 0.8431	842.67	838.32	834.07	829.62	1176.3	1143.9
x2 = 0.8995	822.2	817.81	813.53	809.06	1157.8	1125.3
x2 = 0.9517	801.66	797.22	792.9	788.34	1141.4	1108.7
